Results reported in US7695426B2, “Methods for enhancing viability” (Biological Resources Pty Ltd, priority 2003, dated 2010).

Experiments:
mouse embryos [1] = assay: Co-treatment of embryos in vitro with PAF and PFT-α; assay type: cell-based; settings: zygotes cultured 96 h; 10 nM PAF, 10 μM PFT-α or both
2-cell embryos = assay: Intracellular calcium response of embryos to exogenous PAF; assay type: cell-based, mouse; settings: IVF embryos in comparison to fresh and ISF embryos
Description: Mammalian embryos express a receptor for PAF, and activation of this receptor elicits a transient increase in the embryo's intracellular calcium concentration (Emerson et al., 2000, Journal of Biological Chemistry 275, 21905-21913; Lu et al., 2003, Biology of Reproduction 69, 106-116).
Mouse embryos were incubated with exogenous PAF and the intracellular Ca^2+ concentration was determined as described by Emerson et al. (2000). Embryos tested were: (i) those fertilized in the reproductive tract and collected fresh from the reproductive tract (fresh); (ii) embryos produced by IVF and cultured in vitro (IVF); and (iii) embryos fertilized in the reproductive tract and cultured in vitro (ISF). […] This reduced signaling correlated with poor development of the embryos in vitro.

p53 mRNA = assay: RT-PCR of p53 mRNA in embryos incubated in α-amanitin; assay type: cell-based, mouse
Excerpt: RT-PCR was used to compare the expression of p53 mRNA in fresh p53+/+ mouse embryos (embryos fertilised and grown in the reproductive tract) and IVF mouse embryos. For IVF embryos, the model uses a graded range of stress induced by IVF and culture under conditions of increasing growth factor deprivation. Primers were designed (5′-GGAGTCTTCCAGTGTGATGAT, 3′-GGG ACA GCC MG TCT GTT ATG) that successfully produced an RT-PCR product of the correct size (429 bp) and sequence (SUPAMAC) for the p53 gene. Groups of 5 embryos, oocytes or sperm were pooled. mRNA was extracted and RT-PCR performed.
p53 product was detected in oocytes, zygotes, 8-cell, morulae and blastocyst stage mouse embryos collected from the reproductive tract but not in epididymal sperm. In 2-cell embryos detection was variable. […] Quantitative RT-PCR of p53 was performed to compare expression of p53 mRNA in fresh and IVF embryos. Equivalent levels of RNA were found in the oocyte, zygote, morulae and blastocyst of fresh embryos; the levels were 50-70% lower in late 2-cell embryos than in other development stages (data not shown).

mouse embryos [2] = assay: Culture of mouse zygotes (IVF or ISF) with PFT-α as media supplement; assay type: cell-based
Description: (§1) Mouse IVF: Females superovulated by 5 IU pregnant mare serum gonadotrophin followed 48 h later by 5 IU human chorionic gonadotrophin. Oocytes were collected 13-15 h after hCG and washed. Epididymal sperm collected from the epididymides of male mice (14-35 weeks old) of proven fertility is immediately placed into 1 ml of medium. Sperm were allowed to disperse for 10 min at 37° C. and were then added to the oocytes at 0.1×10^6/ml. Fertilisation was performed in a final volume of 1 ml of medium. Oocytes and sperm were cultured together for 5 h at 37° C. in 5% CO2 in air. The oocytes were then retrieved, washed in Hepes-buffered HTF and their fertilisation status assessed by microscopic detection of pronuclei and polar bodies. Fertilised oocytes were transferred to drops of modified HTF medium under mineral oil and their development status assessed each 24 h.
A recently developed selective inhibitor of p53, pifithrin-α (PFTα [2-(2-imino-4,5,6,7-tetrahydrobenzothiazol-3-yl)-1-p-tolylethanone], Sigma-Aldrich), is a small molecule that reversibly blocks p53-dependent transcriptional activation and apoptosis (Komarov et al., 1999, Science 285, 1733-1737). PFT-α was prepared initially by solubilising to a concentration of 10 mM in dimethylsolfoxide and diluted to working concentrations.
Zygotes were produced by either fertilization in vitro (IVF) or fertilisation in situ (ISF) and cultured for 96 hours in modified HTFM medium individually in […] drops. PFT-α was added as a media supplement over the dose range […]. The proportion of embryos developing to the blastocyst stage (FIG. 3A), the number of cells per normal blastocyst and the proportion of cells undergoing apoptosis (FIG. 3B), were assessed.

bovine sperm = assay: Treatment of bovine sperm with PFT-α before insemination, blastocyst formation; assay type: cell-based; settings: bovine sperm incubated 1 h with 0.3-3 μM PFT-α before insemination; Day 7; compared to control
Description: All embryo manipulations were performed at 39° C. except for oocyte harvesting and activation which was performed at room temperature. All procedures were performed in 4-well Nunc dishes in Tissue Culture Medium 199 (TCM-199) supplemented with HEPES (TCM-H TCM-199; Gibco™ BRL/Life Technologies, Melbourne, Victoria, Australia) without mineral oil overlay, unless otherwise indicated.
Bovine ovaries collected from 2 different local slaughterhouse, transported at 30-35° C. to the laboratory and washed on 39° C. physiologic saline (0.9% NaCl; Baxter Healthcare Pty., Ltd., NSW, Australia). Ovarian antral follicles (2-8 mm) were aspirated using an 18-gauge needle and collected into TCM-H with 30 IU ml^−1 heparin (Pharmacia & Upjohn Pty., Ltd., Perth, Wash., Australia) and 2% gamma radiated fetal bovine serum (FBS; JRH Biosciences Pty., Ltd., Melbourne, Victoria, Australia). Cumulus oocyte complexes (COCs) showing an even cytoplasm and surrounded by at least three layers of compact cumulus cells were collected from the follicular fluid. […]
Frozen/thawed semen from an elite bull was placed on a Percoll gradient and centrifuged at 600×g for 20 minutes. The top layers were removed and the sperm concentration and motility of the pellet determined. […]
The proportion of blastocysts were determined on Day 7 (Day 0=fertilization). […]

mouse embryos [3] = assay: Combined treatment of IGF-II and PFT-α on embryo development in vitro; assay type: cell-based; settings: IVF zygotes cultured 96 h, 10 ng/ml IGF-II, 1 μM PFT-α, or both; for Cells/blastocyst: control 23 ± 4; for % blastocyst: control 31
Description: The IGF-II used was human recombinant insulin-like growth factor-II (expressed in E. Coli) (Sigma Chemical Co.), reconstituted with a minimal volume of 0.1M acetic acid and immediately diluted with modified-HTF to a concentration of 50 μg/ml. Aliquots were frozen at −70° C. Upon thawing, aliquots were serially diluted with modified-HTF.
Zygotes produced by IVF from F1 crosses were prepared and cultured as described above, with 1 embryo per […] drop of media. Zygotes were cultured for 96 h in modified HTFM medium individually in 10 μl drops. The proportion of embryos developing to morphologically normal blastocysts, the number of cells in each blastocyst and the number of apoptotic cells per blastocyst were assessed in media containing 10 ng/ml IGF-II, 1 μM PFT-α, or IGF-II+PFT-α.

sperm and oocytes = assay: Treatment of mouse gametes with PFT-α during capacitation and fertilisation in vitro; assay type: cell-based
Description: as §1
PFT-α preparation, IVF and embryo culture was as previously described. The study used F1 (C57Bl6j×CBAj) males and females. PFT-α was added to sperm during its capacitation and during the process of fertilisation in vitro.
4-5 h after the addition of sperm to oocytes, the oocytes were washed free of sperm and PFT-α. They were examined for the presence of 2 pronuclei as evidence of successful fertilisation. Successfully fertilised oocytes were placed in culture in 10 μL of modified HTF media, 1 zygote per 10 μL drop. They were culture for 120 h and the proportion forming morphologically normal blastocysts were recorded. The blastocysts were fixed in 2% formaldehyde and stained with 5 μG Hoechst stain/ml. […]
The effect of dose of PFT-A on the proportion of oocytes fertilised, the proportion of zygotes that developed to morphological blastocyst and the number of cells in each blastocysts were recorded and are shown in FIGS. 4A, B and C respectively. The effect of PFT-A dose was assessed using the SPSS statistical package. The fertilisation rate and development rate were assessed using binary logistic regression analysis while cell numbers were assessed by univariate analysis using the general linear model.

[4] = gametes treated with PFT-α, zygotes cultured 120 h, P<0.05

Molecule: 1 hexadecyl/octadecyl-2-acetyl-sn-glyceryl-3-phosphocholine [PAF]
- embryo viability as proportion of embryos that developed to the blastocyst stage (mouse embryos [1]): increase in embryo viability
- proportion of 2-cell IVF embryos that responded to exogenous PAF (intracellular calcium) (2-cell embryos): substantially reduced

Molecule: CC[C@H](C)[C@@H]1NC(=O)CNC(=O)[C@@H]2Cc3c([nH]c4cc(O)ccc34)[S+]([O-])C[C@@H](NC(=O)CNC1=O)C(=O)N[C@@H](CC(N)=O)C(=O)N1C[C@H](O)C[C@H]1C(=O)N[C@@H]([C@@H](C)[C@@H](O)CO)C(=O)N2 (stereo in doubt) [α-amanitin]
- p53 mRNA in embryos after incubation from the 2-cell stage (p53 mRNA; 2-cell embryos incubated in α-amanitin, after 24 h): p53 mRNA negative
- qualitative expression of p53 RNA in zygotes (p53 mRNA; zygotes incubated in α-amanitin): no effect

Molecule: Cc1ccc(C(=O)Cn2c3c(sc2=N)CCCC3)cc1 [PFT-α, 2-(2-imino-4,5,6,7-tetrahydrobenzothiazol-3-yl)-1-p-tolylethanone]
- proportion of IVF embryos that developed to the blastocyst stage (mouse embryos [2]; IVF zygotes cultured 96 h individually, PFT-α dose range 0.1-20 μM): significant quadratic effect
- embryo survival (mouse embryos [2]; between 0.1 and 20 μM added to embryos in culture): significant effect on increasing embryo survival
- number of cells per normal blastocyst (mouse embryos [2]; both ISF and IVF zygotes, cultured 96 h, PFT-α dose range 0.1-20 μM): significant improvement
- number of cells undergoing apoptosis (mouse embryos [2]; both ISF and IVF zygotes, cultured 96 h, PFT-α dose range 0.1-20 M (so in the source)): significant decrease
- proportion of resulting embryos that developed to morphological blastocysts (bovine sperm): significant positive effect
- embryo viability as proportion of embryos that developed to the blastocyst stage (mouse embryos [1]): increase in embryo viability
- Cells/blastocyst (mouse embryos [3]): 32 ± 4
- % blastocyst (mouse embryos [3]): 44%
- fertilisation rate (proportion of oocytes fertilised) (sperm and oocytes; PFT-α present during sperm capacitation and IVF, P<0.01): dose-dependent increase
- mean number of cells present in each embryo (blastocyst) (sperm and oocytes; [4]): dose-dependent significant increase
- proportion of zygotes that developed to the blastocyst stage (sperm and oocytes; [4]): further dose-dependent increase

Molecule: IGF-II: human recombinant insulin-like growth factor-II (expressed in E. Coli), Sigma Chemical Co.
- Cells/blastocyst (mouse embryos [3]): 29 ± 2
- % blastocyst (mouse embryos [3]): 42%
